Data from patent US20100069366A1, “ANTIBACTERIAL QUINOLINE DERIVATIVES” (JANSSEN-CILAG, priority 2006, published 2010).
≈ marks a conversion by molar mass, not a printed value. Like-named read-outs stand apart in the source and are kept apart here.

Assays:
Assay type in all cases: cell-based
M. Smegmatis ATCC607 = test: In-vitro anti-bacterial activity against strain M. smegmatis ATCC607; settings: for IC90: Mycolicibacterium smegmatis
Procedure: Flat-bottom, sterile 96-well plastic microtiter plates were filled with 180 μl of sterile deionized water, supplemented with 0.25% BSA. Subsequently, stock solutions (7.8× final test concentration) of compounds were added in 45 μl volumes to a series of duplicate wells in column 2 so as to allow evaluation of their effects on bacterial growth. Serial five-fold dilutions (45 μl in 180 μl) were made directly in the microtiter plates from column 2 to 11 using a customised robot system (Zymark Corp., Hopkinton, Mass.). Pipette tips were changed after every 3 dilutions to minimize pipetting errors with high hydrophobic compounds. Untreated control samples with (column 1) and without (column 12) inoculum were included in each microtiter plate. Approximately 250 CFU per well of bacteria inoculum, in a volume of 100 μl in 2.8× Mueller-Hinton broth medium, was added to the rows A to H, except column 12. The same volume of broth medium without inoculum was added to column 12 in row A to H. The cultures were incubated at 37° C. for 48 hours in a humidified 5% CO2 atmosphere (incubator with open air valve and continuous ventilation). At the end of incubation, two days after inoculation, the bacterial growth was quantitated fluorometrically. Therefore Alamar Blue (10×) was added to all wells in a volume of 20 μl and plates were incubated for another 2 hours at […]
The fluorescence was read in a computer-controlled fluorometer (Cytofluor, Biosearch) at an excitation wavelength of 530 nm and an emission wavelength of 590 nm (gain 30).

[1] = test system: Staphylococcus aureus (ATCC29213); test: Microtitre plate assay, IC90 determination, STA 29213
Procedure: (§1) The bacteria used in this study were grown overnight in flasks containing 100 ml Mueller-Hinton Broth (Becton Dickinson—cat. no. 275730) in sterile de-ionized water, with shaking, at 37° C. Stocks (0.5 ml/tube) were stored at −70° C. until use. Bacteria titrations were performed in microtiter plates to detect the TCID50, in which the TCID50 represents the dilution that gives rise to bacterial growth in 50% of inoculated cultures.
(§2) In general, an inoculum level of approximately 100 TCID50 was used for susceptibility testing.
(§3) Flat-bottom, sterile 96-well plastic microtiter plates were filled with 180 μl of sterile deionized water, supplemented with 0.25% BSA. Subsequently, stock solutions (7.8× final test concentration) of compounds were added in 45 μl volumes in column 2 Serial five-fold dilutions (45 μl in […]) were made directly in the microtiter plates from column 2 to reach column 11. Untreated control samples with (column 1) and without (column 12) inoculum were included in each microtiter plate. Depending on the bacteria type, approximately 10 to 60 CFU per well of bacteria inoculum (100 TCID50), in a volume of 100 μl in 2.8× Mueller-Hinton broth medium, was added to the rows A to H, except column 12. The same volume of broth medium without inoculum was added to column 12 in row A to H. The cultures were incubated at 37° C. for 24 hours under a normal atmosphere (incubator with open air valve and continuous ventilation). At the end of incubation, one day after inoculation, the bacterial growth was quantitated fluorometrically. Therefore resazurin (0.6 mg/ml) was added in a volume of 20 μl to all wells 3 hours after inoculation, and the plates were re-incubated overnight. A change in colour from blue to pink indicated the growth of bacteria. The fluorescence was read in a computer-controlled fluorometer (Cytofluor Biosearch) at an excitation wavelength of 530 nm and an emission wavelength of 590 nm. The % growth inhibition achieved by the compounds was calculated according to standard methods.

[2] = test system: Streptococcus pneumoniae (ATCC6305); test: Microtitre plate assay, IC90 determination, SPN 6305; settings: 90% inhibitory concentration for bacterial growth, resazurin
Procedure: as §1, §2, §3

[3] = ATCC607, 48 h, read-out: M. smegmatis IC90 (μg/ml), 90% inhibitory concentration for bacterial growth, Alamar Blue fluorescence
[4] = Staphylococcus aureus, ATCC29213, read-out: IC90 (μg/ml) STA 29213
[5] = Streptococcus pneumoniae, ATCC6305, read-out: IC90 (μg/ml) SPN 6305, Streptococcus pneumoniae ATCC6305
[6] = ATCC607, 90% inhibitory concentration for bacterial growth, 48 hours, Alamar Blue fluorescence, read-out: M. smegmatis IC90
[7] = Staphylococcus aureus ATCC29213, 90% inhibitory concentration for bacterial growth, resazurin, read-out: IC90 (μg/ml) STA 29213
[8] = Streptococcus pneumoniae ATCC6305, read-out: IC90 (μg/ml) SPN 6305
[9] = 90% inhibitory concentration for bacterial growth, 48 hours, Alamar Blue fluorescence
[10] = Staphylococcus aureus ATCC29213, 90% inhibitory concentration for bacterial growth, resazurin
[11] = Streptococcus pneumoniae ATCC6305

| SMILES | IC90 (M. Smegmatis ATCC607; [3]) [µg/mL] | IC90 [2, 5] [µg/mL] | IC90 (M. Smegmatis ATCC607; [6]) [µg/mL] | IC90 [1, 7] [µg/mL] | IC90 [2, 8] [µg/mL] | other results |
| --- | --- | --- | --- | --- | --- | --- |
| CSc1nc2ccc(Br)cc2cc1C(/C(=C/CN(C)C)c1ccccc1)c1ccccc1 (stereo not shown) [Compound 4] | 7.98 (≈ 15.8 µM) | 17.9 (≈ 35.5 µM) |  |  |  | IC90 [1, 4]: 40 µg/mL (≈ 79.4 µM) |
| COc1nc2ccc(Br)cc2cc1C(/C(=C/Cc1ccccc1)CCN(C)C)c1ccccc1 (stereo not shown) [Compound 7] |  |  | 1.63 (≈ 3.16 µM) | 1.63 (≈ 3.16 µM) | 2.05 (≈ 3.98 µM) |  |
| COc1nc2ccc(Br)cc2cc1/C(=C(\C)CCN(C)C)c1ccccc1 [Compound 15] |  |  | 1.35 (≈ 3.17 µM) | 33.8 (≈ 79.4 µM) | 6.74 (≈ 15.8 µM) |  |
| COc1nc2ccc(Br)cc2cc1C(/C(=C\CN(C)C)c1ccsc1)c1ccccc1 (stereo not shown) [Compound 16] |  |  | 1.75 (≈ 3.55 µM) | 7.82 (≈ 15.8 µM) | 1.56 (≈ 3.16 µM) |  |
| COc1nc2ccc(Br)cc2cc1/C(=C(/CCN(C)C)c1ccsc1)c1ccccc1 [Compound 18] |  |  | 9.85 (≈ 20 µM) | 17.5 (≈ 35.5 µM) | 8.78 (≈ 17.8 µM) |  |
| Clc1ccc(/C(=C(\CCCCN2CCCCC2)c2ccccc2)c2cnc3ccccc3c2)cc1 [Compound 19] | 1.52 (≈ 3.16 µM) |  |  |  |  |  |
| CSc1nc2ccc(-c3ccccc3)cc2cc1C(/C(=C/CN(C)C)c1ccccc1)c1ccccc1 (stereo not shown) [Compound 20] | 1.41 (≈ 2.82 µM) | 1.41 (≈ 2.82 µM) |  |  |  | IC90 [1, 4]: 1.58 µg/mL (≈ 3.16 µM) |
| COc1nc2ccc(-c3ccco3)cc2cc1C(/C(=C/CN(C)C)c1cccc2ccccc12)c1ccccc1 (stereo not shown) [Compound 21] | 14.8 (≈ 28.2 µM) | 23.4 (≈ 44.7 µM) |  |  |  | IC90 [1, 4]: 41.7 µg/mL (≈ 79.4 µM) |
| COc1nc2ccc(-c3ccco3)cc2cc1/C(=C(/CCN(C)C)c1cccc2ccccc12)c1ccccc1 [Compound 22] | 1.66 (≈ 3.16 µM) | 20.9 (≈ 39.8 µM) |  |  |  | IC90 [1, 4]: 20.9 µg/mL (≈ 39.8 µM) |
| COc1nc2ccc(-c3cccnc3)cc2cc1C(=C(CCN(C)C)c1cccc2ccccc12)c1ccccc1 [Compound 41] |  |  |  |  |  | M. smegmatis IC90 (M. Smegmatis ATCC607; [9]): 3.79 µg/mL; IC90 (μg/ml) STA 29213 [1, 10]: 8.49 µg/mL (≈ 15.8 µM); IC90 (μg/ml) SPN 6305 [2, 11]: 9.53 µg/mL (≈ 17.8 µM) |
| COc1nc2ccc(-c3ccccc3)cc2cc1C(=C(CCn1ccnc1)c1ccccc1)c1ccccc1 [Compound 46] |  |  |  |  |  | M. smegmatis IC90 (M. Smegmatis ATCC607; [9]): 1.61 µg/mL; IC90 (μg/ml) STA 29213 [1, 10]: 9.03 µg/mL (≈ 17.8 µM); IC90 (μg/ml) SPN 6305 [2, 11]: 8.05 µg/mL (≈ 15.9 µM) |
| c1ccc(/C(CCCCN2CCCCC2)=C(/c2ccccc2)c2cnc3ccccc3c2)cc1 [Compound 49] | 7.08 (≈ 15.9 µM) | 8.91 (≈ 19.9 µM) |  |  |  | IC90 [1, 4]: 44.7 µg/mL (≈ 100 µM) |
| Clc1ccc(/C(CCCCN2CCCCC2)=C(/c2ccccc2)c2cnc3ccccc3c2)cc1 [Compound 50] | 1.92 (≈ 3.99 µM) | 9.6 (≈ 20 µM) |  |  |  |  |
| COc1ccc(/C(CCCCN2CCCCC2)=C(/c2ccc(C#N)cc2)c2cnc3ccccc3c2)cc1 [Compound 56] |  |  | 7.95 (≈ 15.8 µM) |  | 12.6 (≈ 25.1 µM) |  |
| COc1ccc(/C(=C(\CCCCN2CCCCC2)c2ccccc2)c2cnc3ccccc3c2)cc1 [Compound 57] | 7.55 (≈ 15.8 µM) | 9.51 (≈ 20 µM) |  |  |  |  |
| COc1ccc(/C(CCCCN2CCCCC2)=C(/c2ccc(OC)cc2)c2cnc3ccccc3c2)cc1 [Compound 59] |  |  | 8.03 (≈ 15.8 µM) |  | 11.3 (≈ 22.4 µM) |  |
| COc1nc2ccc(Br)cc2cc1C(/C(=C\CCCN1CCCN(C)CC1)c1ccc2ccccc2c1)c1ccccc1 (stereo not shown) [Compound 62] |  |  | 8.97 (≈ 14.1 µM) | 22.5 (≈ 35.5 µM) |  |  |
| COc1nc2ccc(Br)cc2cc1C(/C(=C/CCCN1CCCN(C)CC1)c1ccc2ccccc2c1)c1ccccc1 (stereo not shown) [Compound 63] |  |  | 3.57 (≈ 5.63 µM) | 2.25 (≈ 3.55 µM) |  |  |
